Literature values in patent US20180311274A1, “IN SITU NEUTRALIZATION COMPOSITION” (Kramer Laboratories, Inc., priority 2017, published 2018).

solubility in water: practically insoluble
Compound: Cc1cccc(N(C)C(=S)Oc2ccc3ccccc3c2)c1 [Tolnaftate]
